Experimental data taken from US8518903B2, “Use of toll-like receptor-9 agonists” (University of Pittsburgh—of the Commonwealth System of …, priority 2007, dated 2013).

Test system: experimental NEC in newborn mice
Assay: Murine NEC model in NFkB-GFP transgenic mice (histology, mucosal TNF-α RTPCR, NFκB activation)
Assay type: in vivo, mouse
Details: NEC mice
Method: FIG. 27A-G. CpG-ODN-HS and CpG-DNA reduce the development of experimental NEC in vivo in newborn mice. Newborn NEC and control mice were injected with CpG-ODN-HS or CpG-DNA. A. Histology (H&E) of terminal ileum of breast fed mouse. B. Histology (H&E) of terminal ileum of mouse after induction of NEC. C. Histology (H&E) of terminal ileum of mouse treated with CpG-DNA, after which conditions which induced NEC were applied. D. Histology (H&E) of terminal ileum of mouse treated with CpG-ODN-HS, after which conditions which induced NEC were applied. E. Histology (H&E) of terminal ileum of breast fed mouse treated with CpG-ODN-HS. F. Histology (H&E) of terminal ileum of breast fed mouse treated with CpG-DNA. G. Severity of NEC in newborn mice as scored by a blinded pediatric pathologist. *p<0.05 vs. NEC in saline-injected mice.
FIG. 28. CpG-ODN-HS and CpG-DNA reduce the expression of mucosal TNF-α in NEC newborn mice in vivo.
FIG. 29A-D. Confocal microscopy showing the extent of NFkB activation in mice with NEC in the absence or presence of CpG-ODN-HS. CpG-ODN-HS reduces the level of NFkB activation in NEC newborn mice in vivo. The mice express NFkB-GFP, and sections were stained with anti-GFP antibody (red; arrow).
The effect of the TLR9 agonist CpG-ODN 5′ […] 3′ (SEQ ID NO:10; referred to herein as CpG-ODN-HS) on the mediator of activated TLR4, NFκB, was examined in a murine NEC model (previously described, above). The effect of CpG-ODN-HS on inflammation in the NEC murine model was also examined as a measured by TNF-α expression, which is an index of inflammation.
Materials and methods. Phosphorothioated CpG-ODN-HS and oligodeoxynucleotide (ODN) 1826 ([…]) (SEQ ID NO:6; referred to herein as CpG-DNA) were synthesized by the University of Pittsburgh DNA synthesis facility. ODNs were confirmed to be endotoxin-free by Limulus assay. NFkB-GFP antibody was obtained from Santa Cruz and Abcam. The extent of nuclear translocation was determined in an adaptation of the methodology of Ding and colleagues. In brief, a threshold limit was set based upon the emission signal for the nuclear stain DRAQ5, which therefore defined a nuclear region of interest (ROI). To define a corresponding cytoplasmic region of interest, a circular region 12 pixels beyond the nucleus was stenciled upon each cell. The average integrated pixel intensity pertaining to the corresponding NFkB emission within the cytoplasmic and nuclear regions was then determined for more than 200 cells per treatment group in at least four experiments per group, using MetaMorph software version 6.1 (Molecular Devices Corporation, Downingtown, Pa.).
Mucosal TNF-α expression was measured using quantitative real-time PCR (RTPCR). Quantitative real-time PCR in cultured enterocytes and intestinal tissue using the BioRad iCycler (Biorad, Hercules, CA) was performed as in (Leaphart, C. L., J. Cavallo, S. C. Gribar, S. Cetin, J. Li, M. F. Branca, T. D. Dubowski, C. P. Sodhi, and D. J. Hackam. 2007. A Critical Role for TLR4 in the Pathogenesis of Necrotizing Enterocolitis by Modulating Intestinal Injury and Repair. J Immunology 179:4808-4820). Oligonucleotide primer pairs used for RTPCR were as follows: forward: 5′ […] 3′ (SEQ ID NO:14), reverse: 5′ […] 3′ (SEQ ID NO:15); and forward: 5′ […] 3′ (SEQ ID NO:16), reverse: 5′ […] 3′ (SEQ ID NO:17). Gene expression was normalized to β-actin expression. Where indicated, gene expression was assessed on 2.5% agarose gels using ethidium bromide staining. […]

Substance: 5′-TCCATGACGTTCCTGACGTT-3′ [CpG-DNA]
- level of expression of mucosal TNF-α in terminal ileum (RTPCR): reduced
- NEC pathology (histology of terminal ileum) (treated vs untreated): inhibition of the NEC pathology
